Patent US20080045546A1, “Tetradydro-Naphthalene And Urea Derivatives” (priority 2003, published 2008)

Target: T1, human VR1 (Homo sapiens, UniProt Q8NER1)
T1 construct: expressed in transfected cells
Assay: Capsaicin-induced Ca2+ influx in the human VR1-transfected CHO cell line (Assay 1)
Format: cell-based
Settings: stimulation with 10 nM capsaicin; human VR1-CHOluc9aeq cells; read-out: activity class (IC50)
Source text: [Measurement of Capsaicin-induced Ca^2+ Influx in the Human VR1-transfected CHO Cell Line](Assay 1)
(1) Establishment of the Human VR1-CHOluc9aeq Cell Line
Human vanilloid receptor (hVR1) cDNA was cloned from libraries of axotomized dorsal root ganglia (WO 00/29577). The cloned hVR1 cDNA was constructed with pcDNA3 vector and transfected into a CHOluc9aeq cell line. The cell line contains aequorin and CRE-luciferase reporter genes as read-out signals. The transfectants were cloned by limiting dilution in selection medium (DMEM/F12 medium (Gibco BRL) supplemented with 10% FCS, 1.4 mM Sodium pyruvate, 20 mM HEPES, 0.15% Sodium bicarbonate, 100 U/ml penicillin, 100 μg/ml streptomycin, 2 mM glutamine, non-essential amino acids and 2 mg/ml G418). Ca^2+ influx was examined in the capsaicin-stimulated clones. A high responder clone was selected and used for further experiments in the project. The human VR1-CHOluc9aeq cells were maintained in the selection medium and passaged every 3-4 days at 1-2.5×10^5 cells/flask ([…]).
(2) Measurement of Ca^2+ Influx Using FDSS-3000
Human VR1-CHOluc9aeq cells were suspended in a culture medium which is the same as the selection medium except for G418 and seeded at a density of 1,000 cells per well into 384-well plates (black walled clear-base/Nalge Nunc International). Following the culture for 48 hrs the medium was changed to 2 μM Fluo-3 AM (Molecular Probes) and 0.02% Puronic F-127 in assay buffer (Hank's balanced salt solution (HBSS), 17 mM HEPES (pH7.4), 1 mM Probenecid, 0.1% BSA) and the cells were incubated for 60 min at 25° C. After washing twice with assay buffer the cells were incubated with a test compound or vehicle for 20 min at 25° C. Mobilization of cytoplasmic Ca^2+ was measured by FDSS-3000 (λex=488 nm, λem=540 nm/Hamamatsu Photonics) for 60 sec after the stimulation with 10 nM capsaicin. Integral R was calculated and compared with controls.

T1 sequence (Q8NER1 whole entry): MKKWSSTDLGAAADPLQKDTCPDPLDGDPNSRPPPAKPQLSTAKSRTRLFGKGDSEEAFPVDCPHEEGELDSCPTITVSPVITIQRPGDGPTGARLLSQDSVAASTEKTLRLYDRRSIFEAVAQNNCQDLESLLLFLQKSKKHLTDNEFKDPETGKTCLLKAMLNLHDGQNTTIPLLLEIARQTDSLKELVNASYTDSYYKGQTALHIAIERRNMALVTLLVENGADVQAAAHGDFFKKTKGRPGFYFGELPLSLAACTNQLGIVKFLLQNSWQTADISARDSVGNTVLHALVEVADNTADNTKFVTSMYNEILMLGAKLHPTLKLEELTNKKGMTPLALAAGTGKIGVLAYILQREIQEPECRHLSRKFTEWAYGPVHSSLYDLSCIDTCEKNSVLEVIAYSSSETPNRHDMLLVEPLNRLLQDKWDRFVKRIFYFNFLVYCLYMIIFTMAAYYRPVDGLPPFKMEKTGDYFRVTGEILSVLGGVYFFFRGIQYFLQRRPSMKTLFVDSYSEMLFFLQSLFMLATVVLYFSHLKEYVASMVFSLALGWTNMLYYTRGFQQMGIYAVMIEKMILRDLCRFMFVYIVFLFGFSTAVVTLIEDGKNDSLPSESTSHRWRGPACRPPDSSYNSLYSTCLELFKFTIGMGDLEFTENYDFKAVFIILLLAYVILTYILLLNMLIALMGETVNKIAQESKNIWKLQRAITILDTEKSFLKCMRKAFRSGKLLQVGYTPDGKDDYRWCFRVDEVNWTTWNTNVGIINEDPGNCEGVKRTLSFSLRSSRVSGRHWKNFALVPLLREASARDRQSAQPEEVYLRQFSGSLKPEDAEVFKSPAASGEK

Row | SMILES | IC50 [nM]
1 | CC(=O)OC1Cc2cccc(NC(=O)NCc3ccc(C(F)(F)F)cc3)c2C1 (stereo not drawn) [1-2] | < 100
2 | CC(C)(C)c1cc(NC(=O)Nc2cccc3c2CC(O)CC3)no1 (stereo not drawn) [1-2] | 100 to 500
3 | COc1ccccc1C(=O)Nc1cccc2c1CC(O)CC2 (stereo not drawn) [1-2] | 500 to 1000
4 | O=C(Nc1ccc(Cl)c(C(F)(F)F)c1)Nc1cccc2c1CCC2O (stereo not drawn) [1-3] | < 100
5 | O=C(Nc1cccc2c1CC(O)CC2)NC1CCc2ccccc21 (stereo not drawn) [1-3] | 100 to 500
6 | O=C(Nc1cccc2c1CC(O)CC2)c1ccc(C(F)(F)F)cc1 (stereo not drawn) [1-3] | 100 to 500
7 | O=C(Cc1cccc(Br)c1)Nc1cccc2c1CC(O)CC2 (stereo not drawn) [1-4] | 500 to 1000
8 | O=C(Nc1ccc(Oc2ccncc2)cc1)Nc1cccc2c1CC(O)CC2 (stereo not drawn) [1-4] | 100 to 500
9 | O=C(NCc1cccnc1)Nc1cccc2c1CC(O)CC2 (stereo not drawn) [1-5] | 500 to 1000
10 | O=C(NCc1ccncc1)Nc1cccc2c1CC(O)CC2 (stereo not drawn) [1-6] | 500 to 1000
11 | O=C(Nc1cccc2c1CC(O)CC2)NC1CCCc2ccccc21 (stereo not drawn) [1-7] | < 100
12 | O=C(NCc1ccc(-c2csnn2)cc1)Nc1cccc2c1CC(O)CC2 (stereo not drawn) [1-8] | < 100
13 | CC(=O)OC1Cc2cccc(NC(=O)Nc3ccc(Cl)c(C(F)(F)F)c3)c2C1 (stereo not drawn) [Example 1-1] | 500 to 1000
14 | O=C(Nc1ccc2c(c1)OCO2)Nc1cccc2c1CC(O)CC2 (stereo not drawn) [Example 1-1] | 500 to 1000
15 | O=C(Nc1cccc2c1CC(O)CC2)c1cc2cc(Cl)ccc2[nH]1 (stereo not drawn) [Example 1-1] | 100 to 500
16 | O=C(NCc1ccccn1)Nc1cccc2c1CC(O)CC2 (stereo not drawn) [Example 1-9] | 500 to 1000
17 | O=C(NCc1ccc2c(c1)OCO2)Nc1cccc2c1CC(O)CC2 (stereo not drawn) [Example 1-10] | < 100
18 | O=C(Nc1cccc(-c2ccncc2)c1)Nc1cccc2c1CC(O)CC2 (stereo not drawn) [Example 1-11] | < 100
19 | O=C(NCc1ccc(C(F)(F)F)nc1)Nc1cccc2c1CC(O)CC2 (stereo not drawn) [Example 1-12] | < 100
20 | Cl.O=C(NCc1ccc(C(F)(F)F)nc1)Nc1cccc2c1CC(O)CC2 (stereo not drawn) [Example 1-13] | < 100

Results, then the compound that gave them:

Row | IC50 [nM] | SMILES
21 | 500 to 1000 | CCOC1=CCc2c(cccc2NC(=O)NCc2ccc(C(F)(F)F)cc2)C1 [2-4]
22 | < 100 | O=C1CCc2c(cccc2NC(=O)NCc2ccc(C(F)(F)F)cc2)C1 [2-5]
23 | < 100 | O=C(NCc1ccc(C(F)(F)F)cc1)Nc1cccc2c1CCC(O)C2 (stereo not drawn) [2-6]
24 | < 100 | O=C(Nc1ccc(Cl)c(C(F)(F)F)c1)Nc1cccc2c1CC(O)C(O)C2 (stereo not drawn) [2-7]
25 | 100 to 500 | COC1Cc2cccc(NC(=O)Nc3ccc(Cl)c(C(F)(F)F)c3)c2CC1O (stereo not drawn) [2-8]
26 | < 100 | O=C1CCc2c(cccc2NC(=O)Nc2ccc(Cl)c(C(F)(F)F)c2)C1 [Example 2-2]
27 | < 100 | O=C(Nc1ccc(Cl)c(C(F)(F)F)c1)Nc1cccc2c1CCC(O)C2 (stereo not drawn) [Example 2-3, N-[4-Chloro-3-(trifluoromethyl)phenyl]-N′-(6-hydroxy-5,6,7,8-tetrahydronaphthalen-1-yl)urea]
28 | < 100 | COC1Cc2c(cccc2NC(=O)Nc2ccc(Cl)c(C(F)(F)F)c2)CC1O (stereo not drawn) [Example 2-9]
29 | < 100 | CC1CCc2cccc(NC(=O)Nc3ccc(Cl)c(C(F)(F)F)c3)c2C1 (stereo not drawn) [Example 3-1]
30 | < 100 | O=C(Nc1ccc(Cl)c(C(F)(F)F)c1)Nc1cccc2c1CC(CO)CC2 (stereo not drawn) [Example 4-1, N-[4-Chloro-3-(trifluoromethyl)phenyl]-N′-[7-(hydroxymethyl)-5,6,7,8-tetrahydronaphthalen-1-yl]urea]

System: not given
Assay: not given
Settings: not given

Row | SMILES | melting point [°C]
31 | O=C(Nc1ccc2c(c1)OCO2)Nc1cccc2c1CC(O)CC2 (stereo not drawn) | 209 to 211
32 | CC(=O)OC1Cc2cccc(NC(=O)Nc3ccc(Cl)c(C(F)(F)F)c3)c2C1 (stereo not drawn) [Example 1-1, 4-[({[4-Chloro-3-(trifluoromethyl)phenyl]amino}carbonyl)amino]-2,3-dihydro-1H-inden-2-yl acetate] | 207 to 209
33 | CC(=O)OC1Cc2cccc(NC(=O)NCc3ccc(C(F)(F)F)cc3)c2C1 (stereo not drawn) [Example 1-2] | 166 to 168
34 | COc1ccccc1C(=O)Nc1cccc2c1CC(O)CC2 (stereo not drawn) [Example 1-2] | 184 to 186
35 | O=C(Nc1ccc(Cl)c(C(F)(F)F)c1)Nc1cccc2c1CCC2O (stereo not drawn) [Example 1-3] | 221 to 223
36 | O=C(Nc1cccc2c1CC(O)CC2)NC1CCc2ccccc21 (stereo not drawn) [Example 1-3] | 193 to 195
37 | O=C(Nc1cccc2c1CC(O)CC2)c1ccc(C(F)(F)F)cc1 (stereo not drawn) [Example 1-3] | 217 to 218
38 | O=C(Nc1ccc(Oc2ccncc2)cc1)Nc1cccc2c1CC(O)CC2 (stereo not drawn) [Example 1-4] | 200 to 202
39 | O=C(NCc1cccnc1)Nc1cccc2c1CC(O)CC2 (stereo not drawn) [Example 1-5] | 203
40 | O=C(NCc1ccncc1)Nc1cccc2c1CC(O)CC2 (stereo not drawn) [Example 1-6] | 243
41 | O=C(Nc1cccc2c1CC(O)CC2)NC1CCCc2ccccc21 (stereo not drawn) [Example 1-7] | 216
42 | O=C(NCc1ccc(-c2csnn2)cc1)Nc1cccc2c1CC(O)CC2 (stereo not drawn) [Example 1-8] | 225
43 | O=C(NCc1ccccn1)Nc1cccc2c1CC(O)CC2 (stereo not drawn) [Example 1-9] | 230
44 | O=C(NCc1ccc2c(c1)OCO2)Nc1cccc2c1CC(O)CC2 (stereo not drawn) [Example 1-10] | 190
45 | O=C(Nc1cccc(-c2ccncc2)c1)Nc1cccc2c1CC(O)CC2 (stereo not drawn) [Example 1-11] | 208
46 | O=C(NCc1ccc(C(F)(F)F)nc1)Nc1cccc2c1CC(O)CC2 (stereo not drawn) [Example 1-12] | 211 to 212
47 | Cl.O=C(NCc1ccc(C(F)(F)F)nc1)Nc1cccc2c1CC(O)CC2 (stereo not drawn) [Example 1-13] | 204 to 205

The next lines start with the values.

Row | melting point [°C] | SMILES
48 | 216 | CCOC1=CCc2c(cccc2NC(=O)Nc2ccc(Cl)c(C(F)(F)F)c2)C1 [Example 2-1, N-[4Chloro-3-(trifluoromethyl)phenyl]-N′-(6-ethoxy-5,8-dihydronaphthalen-1-yl)urea]
49 | 219 | O=C1CCc2c(cccc2NC(=O)Nc2ccc(Cl)c(C(F)(F)F)c2)C1 [Example 2-2, N-[4-Chloro-3-(trifluoromethyl)phenyl]-N′-(6-oxo-5,6,7,8-tetrahydronaphthalen-1-yl)urea]
50 | 216 | O=C(Nc1ccc(Cl)c(C(F)(F)F)c1)Nc1cccc2c1CCC(O)C2 (stereo not drawn) [Example 2-3, N-[4-Chloro-3-(trifluoromethyl)phenyl]-N′-(6-hydroxy-5,6,7,8-tetrahydronaphthalen-1-yl)urea]
51 | 235 | CCOC1=CCc2c(cccc2NC(=O)NCc2ccc(C(F)(F)F)cc2)C1 [Example 2-4]
52 | 221 | O=C1CCc2c(cccc2NC(=O)NCc2ccc(C(F)(F)F)cc2)C1 [Example 2-5]
53 | 205 | O=C(NCc1ccc(C(F)(F)F)cc1)Nc1cccc2c1CCC(O)C2 (stereo not drawn) [Example 2-6]
54 | 112 to 127 | COC1Cc2c(cccc2NC(=O)Nc2ccc(Cl)c(C(F)(F)F)c2)CC1O (stereo not drawn) [Example 2-9]
